# Results: patent US9447082B2, “Optically active fluconazole analogues containing thiophenes as antifungal agents” (FDC Limited, priority 2011, dated 2016)
# Key:
# [1] = tested on: C. albicans ATCC 2091; assay: MIC by broth dilution, C. albicans ATCC 2091; details: for MIC50: Candida albicans, ATCC2091, 48 h, pH 7
# [2] = tested on: Candida albicans ATCC 24433; assay: MIC by broth dilution, C. albicans ATCC 24433; details: for MIC50: Candida albicans, ATCC24433, 48 h, pH 7
# [3] = tested on: Aspergillus fumigatus ATCC 46645; assay: MIC by broth dilution, A. fumigatus ATCC 46645; details: for MIC50: Aspergillus fumigatus, ATCC46645, 48 h, pH 7
# [4] = tested on: C. tropicalis ATCC 750; assay: MIC by broth dilution, C. tropicalis ATCC 750; details: for MIC50: Candida tropicalis, ATCC750, 48 h, pH 7
# [5] = tested on: C. glabrata ATCC 90030; assay: MIC by broth dilution, C. glabrata ATCC 90030; details: for MIC50: Nakaseomyces glabratus, ATCC90030, 48 h, pH 7
# [6] = tested on: Fusarium proliferatum ATCC 10052; assay: MIC by broth dilution, F. proliferatum ATCC 10052; details: for MIC50: Fusarium proliferatum, ATCC10052, 48 h, pH 7
# [7] = tested on: Aspergillus niger ATCC 16404; assay: MIC by broth dilution, A. niger ATCC 16404; details: for MIC50: Aspergillus niger, ATCC16404, 48 h, pH 7
# [8] = tested on: C. albicans ATCC 90028; assay: MIC by broth dilution, C. albicans ATCC 90028; details: for MIC50: Candida albicans, ATCC90028, 48 h, pH 7
# [9] = tested on: C. Krusei ATCC 6258; assay: MIC by broth dilution, C. krusei ATCC 6258; details: for MIC50: Pichia kudriavzevii, ATCC6258, 48 h, pH 7
# [10] = tested on: C. albicans ATCC 10231; assay: MIC by broth dilution, C. albicans ATCC 10231; details: for MIC50: Candida albicans, ATCC10231, 48 h, pH 7
# [11] = tested on: Cryptococcus neoformans ATCC 34664; assay: MIC by broth dilution, C. neoformans ATCC 34664; details: for MIC50: Cryptococcus neoformans, ATCC34664, 48 h, pH 7
Structure (SMILES),MIC50 [1] [µg/mL],MIC50 [2] [µg/mL],MIC50 [3] [µg/mL],MIC50 [4] [µg/mL],MIC50 [5] [µg/mL],MIC50 [6] [µg/mL],MIC50 [7] [µg/mL],MIC50 [8] [µg/mL],MIC50 [9] [µg/mL],MIC50 [10] [µg/mL],MIC50 [11] [µg/mL],other results
"CCCc1cc(C#N)c(NC[C@@](O)(Cn2cncn2)c2ccc(F)cc2F)s1 [Compound 1b-02, (R)-2-((2-(2,4-Difluorophenyl)-2-hydroxy-3-(1H-1,2,4-triazol-1-yl)propyl)amino)-5-propylthiophene-3-carbonitrile]",1,0.5,8,> 8,0.5,> 128,> 8,0.5,> 8,1,8,
Cc1cc(C#N)c(NCC(O)(Cn2cncn2)c2ccc(F)cc2F)s1 (racemic) [Compound 2-01],0.5,0.25,> 64,4,0.25,> 64,> 64,0.5,64,0.5,4,
"CCCCCc1cc(C#N)c(NC[C@](O)(Cn2cncn2)c2ccc(F)cc2F)s1 [Compound 1a-04, (S)-2-((2-(2,4-Difluorophenyl)-2-hydroxy-3-(1H-1,2,4-triazol-1-yl)propyl)amino)-5-pentylthiophene-3-carbonitrile]",0.5,0.12,> 8,1,0.12,> 8,> 8,0.25,4,0.5,1,
"C[C@@H]1[C@H](O)[C@@H](C)/C=C/C=C/C=C/C=C/C=C/C=C/C=C/[C@H](O[C@@H]2O[C@H](C)[C@@H](O)[C@H](N)[C@@H]2O)C[C@@H]2O[C@](O)(C[C@@H](O)C[C@@H](O)[C@H](O)CC[C@@H](O)C[C@@H](O)CC(=O)O[C@H]1C)C[C@H](O)[C@H]2C(=O)O [AMB, Amphotericin-B]",,,,,,,,,,,,"MIC50 (Amphotericin B: MIC, complete inhibition) ([1]; C. albicans ATCC 2091, 48 hours, concentration exhibiting complete inhibition): 0.5 µg/mL; MIC50 (Amphotericin B: MIC, complete inhibition) ([2]; C. albicans ATCC 24433, 48 hours, concentration exhibiting complete inhibition): 0.25 µg/mL; MIC50 (Amphotericin B: MIC, complete inhibition) ([3]; A. fumigatus ATCC 46645, 48 hours, concentration exhibiting complete inhibition): 0.5 µg/mL; MIC50 (Amphotericin B: MIC, complete inhibition) ([4]; C. tropicalis ATCC 750, 48 hours, concentration exhibiting complete inhibition): 0.5 µg/mL; MIC50 (Amphotericin B: MIC, complete inhibition) ([5]; C. glabrata ATCC 90030, 48 hours, concentration exhibiting complete inhibition): 0.25 µg/mL; MIC50 (Amphotericin B: MIC, complete inhibition) ([6]; F. proliferatum ATCC 10052, 48 hours, concentration exhibiting complete inhibition): 2 µg/mL; MIC50 (Amphotericin B: MIC, complete inhibition) ([7]; A. niger ATCC 16404, 48 hours, concentration exhibiting complete inhibition): 0.25 µg/mL; MIC50 (Amphotericin B: MIC, complete inhibition) ([8]; C. albicans ATCC 90028, 48 hours, concentration exhibiting complete inhibition): 0.5 µg/mL; MIC50 (Amphotericin B: MIC, complete inhibition) ([9]; C. krusei ATCC 6258, 48 hours, concentration exhibiting complete inhibition): 0.5 µg/mL; MIC50 (Amphotericin B: MIC, complete inhibition) ([10]; C. albicans ATCC 10231, 48 hours, concentration exhibiting complete inhibition): 0.5 µg/mL; MIC50 (Amphotericin B: MIC, complete inhibition) ([11]; C. neoformans ATCC 34664, 48 hours, concentration exhibiting complete inhibition): 0.5 µg/mL"
"Cc1cc(C#N)c(NC[C@](O)(Cn2cncn2)c2ccc(F)cc2F)s1 [Compound 1a-01, (S)-2-((2-(2,4-Difluorophenyl)-2-hydroxy-3-(1H-1,2,4-triazol-1-yl)propyl)amino)-5-methylthiophene-3-carbonitrile]",0.25,0.12,> 64,2,0.12,> 64,> 64,0.25,32,0.25,2,
CCCc1cc(C#N)c(NCC(O)(Cn2cncn2)c2ccc(F)cc2F)s1 (racemic) [Compound 2-02],0.12,0.06,> 16,2,0.12,> 16,4,0.12,8,0.12,1,
"CCCc1cc(C#N)c(NC[C@](O)(Cn2cncn2)c2ccc(F)cc2F)s1 [Compound 1a-02, (S)-2-((2-(2,4-Difluorophenyl)-2-hydroxy-3-(1H-1,2,4-triazol-1-yl)propyl)amino)-5-propylthiophene-3-carbonitrile]",0.12,0.06,> 16,2,0.12,> 16,8,0.06,8,0.12,0.5,
CCCCc1cc(C#N)c(NCC(O)(Cn2cncn2)c2ccc(F)cc2F)s1 (racemic) [Compound 2-03],0.25,0.12,> 4,1,0.12,> 4,> 4,0.12,8,0.12,1,
"CCCCc1cc(C#N)c(NC[C@](O)(Cn2cncn2)c2ccc(F)cc2F)s1 [Compound 1a-03, (S)-5-Butyl-2-((2-(2,4-difluorophenyl)-2-hydroxy-3-(1H-1,2,4-triazol-1-yl)propyl)amino)thiophene-3-carbonitrile]",0.12,0.06,> 4,0.5,0.06,> 4,> 4,0.06,4,0.06,0.5,
"OC(Cn1cncn1)(Cn1cncn1)c1ccc(F)cc1F [FLU, Fluconazole]",0.5,0.5,> 128,2,4,> 128,> 128,0.5,64,0.5,2,
